Molecules are shown by their SMILES. pIC50: −log10 of the molar value. Active and inactive are the calls of the source. The rule behind the calls is not given here.

The target in assay [1] is Diacylglycerol lipase-beta (Mus musculus) (UniProt Q91WC9). Description: ABHD6 antitarget inhibition potency, dose response, selectivity assay for DAGLb inhibitor project, biochemical, gel-based competitive ABPP, fluorescent probe, mouse (AID 602322). As to conditions: proteome, DAGLb.
Assay [2] has as its target Monoacylglycerol lipase ABHD6 (Mus musculus) (UniProt Q8R2Y0). The assay is described as above. The settings on record: proteome.

Chain of Diacylglycerol lipase-beta (Mus musculus) (Q91WC9 whole entry, looked up): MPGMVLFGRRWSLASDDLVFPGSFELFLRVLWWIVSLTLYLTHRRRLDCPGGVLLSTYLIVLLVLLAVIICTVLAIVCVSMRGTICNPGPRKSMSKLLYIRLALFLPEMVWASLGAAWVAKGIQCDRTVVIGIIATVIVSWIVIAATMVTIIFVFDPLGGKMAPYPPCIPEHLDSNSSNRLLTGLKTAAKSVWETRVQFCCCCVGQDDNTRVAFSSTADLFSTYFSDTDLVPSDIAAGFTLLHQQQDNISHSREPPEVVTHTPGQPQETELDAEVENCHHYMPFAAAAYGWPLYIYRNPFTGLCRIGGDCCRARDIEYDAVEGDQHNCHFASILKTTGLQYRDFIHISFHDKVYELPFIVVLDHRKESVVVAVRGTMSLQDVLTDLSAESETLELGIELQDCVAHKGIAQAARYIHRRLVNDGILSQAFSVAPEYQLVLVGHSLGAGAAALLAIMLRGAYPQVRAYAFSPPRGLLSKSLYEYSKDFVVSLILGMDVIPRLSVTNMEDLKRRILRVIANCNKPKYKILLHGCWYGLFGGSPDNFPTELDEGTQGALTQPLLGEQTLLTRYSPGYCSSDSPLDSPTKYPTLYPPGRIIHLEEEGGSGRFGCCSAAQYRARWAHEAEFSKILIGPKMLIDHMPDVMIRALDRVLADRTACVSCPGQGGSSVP
Chain of Monoacylglycerol lipase ABHD6 (Mus musculus) (Q8R2Y0 whole entry, looked up): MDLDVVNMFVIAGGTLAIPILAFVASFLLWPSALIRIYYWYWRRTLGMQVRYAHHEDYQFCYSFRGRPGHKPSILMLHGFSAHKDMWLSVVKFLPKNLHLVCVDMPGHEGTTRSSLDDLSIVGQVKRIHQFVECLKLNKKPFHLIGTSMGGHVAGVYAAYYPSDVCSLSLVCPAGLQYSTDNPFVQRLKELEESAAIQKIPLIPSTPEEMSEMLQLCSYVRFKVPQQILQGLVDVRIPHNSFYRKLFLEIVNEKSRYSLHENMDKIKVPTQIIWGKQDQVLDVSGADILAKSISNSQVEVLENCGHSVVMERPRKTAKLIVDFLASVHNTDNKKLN

Turning to `O=C(N1CCCCC1c1ccccc1)n1cc(-c2ccc(-c3cccc(CO)c3)cc2)nn1` (stereo unspecified), the IC50 in assay [1] was > 100 nM (inactive).
As for `O=C(N1CCCCC1c1ccccc1)n1cc(-c2ccc(-c3ccccc3)cc2)nn1` (stereo unspecified), the IC50 in assay [1] is > 100 nM (inactive). The pIC50 in assay [2] was 8.00.
The corresponding values for `COc1ccc(-c2ccc(-c3cn(C(=O)N4CCCCC4c4ccccc4)nn3)cc2)cc1` (stereo unspecified) are > 3330 nM (inactive) and 7.42.
As to `O=C(O)c1cccc(-c2ccc(-c3cn(C(=O)N4CCCCC4Cc4ccccc4)nn3)cc2)c1` (stereo unspecified), in assay [1], the IC50 is > 100 nM (inactive).

(Values after PubChem BioAssay AID602322 (The Scripps Research Institute Molecular Screening Center, 2012).)
